Reference: publication PMC2766634 (Journal of medicinal chemistry, 2009)
Marks after values point to notes of the source that are not given here.

Assays:
[1] = Cyclic voltammetry in DMSO; assay type: physicochemical; conditions: for E1/2 in DMSO (half-wave potential, 0/−1 reduction), mean ± SE: cyclic voltammetry, 0.10 M NBu4PF6 in DMSO, 25 °C, 100 mV/s; for E1/2 more positive than Mz: in DMSO, relative to Mz
[2] = system: G. lamblia (WB/C6, GS/M, 106, and 713); test: Antigiardial growth inhibition; assay type: cell-based, Giardia lamblia; conditions: for selectivity ratio, IC50/EC50: IC50 in HeLa cells / EC50 in Giardia
HeLa cells = test: Cytotoxicity assay; assay type: cell-based, human; conditions: for IC50: Homo sapiens, HeLa, 48 h, read-out: toxicity in HeLa cells, pIC50 (mean ± SE) (converted)
[3] = Cyclic voltammetry in water pH 7.0; assay type: physicochemical; conditions: pH 7.0 phosphate buffer, 0.1 M KCl, 25 °C
G. lamblia GS/M = test: Murine G. lamblia infection model; assay type: in vivo, Giardia lamblia in C57BL/6 mice; conditions: mice, five doses over 3 days; for effect on infection (trophozoites in small intestine) at 2 mg/kg: 2 mg/kg oral gavage; for effect on infection (trophozoites in small intestine) at 10 mg/kg: 10 mg/kg oral gavage

2-[(E)-2-(3a,7a-Dihydro-1,3-benzodioxol-5-yl)vinyl]-1-methyl-5-nitro-1H-imidazole [compound 27]
E1/2 in DMSO (half-wave potential, 0/−1 reduction), mean ± SE [1]: −1.584 ± 0.001 V vs Fc
selectivity ratio, IC50/EC50 [2]: 1,072
Activity against G. lamblia pEC50 (mean ± SE) ([2]; mean ± SE of average pEC50 of four isolates (WB/C6, GS/M, 106, 713)): 7.16 ± 0.34
toxicity in HeLa cells, pIC50 (mean ± SE) (HeLa cells; 2 days culture, three separate experiments): 4.13 ± 0.10
Ep in water (peak potential), mean ± SE [3]: −0.778 ± 0.002 V vs SCE

Cc1ncc([N+](=O)[O-])n1CCO [Mz, metronidazole, reference compound]
effect on infection (trophozoites in small intestine) at 2 mg/kg (G. lamblia GS/M): no significant effect
effect on infection (trophozoites in small intestine) at 10 mg/kg (G. lamblia GS/M): not parasite eradication

Cc1ccc(C(Br)C(Br)c2ncc([N+](=O)[O-])n2C)cc1 (stereo not shown) [compound 3, reference compound]
E1/2 in DMSO (half-wave potential, 0/−1 reduction), mean ± SE [1]: −1.489 ^d ± 0.001 V vs Fc
increased antigiardial activity over Mz ([2]; relative to Mz): 40 fold
selectivity ratio lower than that of Mz ([2]; relative to Mz): > 10 fold
more toxic than Mz in HeLa (HeLa cells; relative to Mz): > 500 fold

Cn1c([N+](=O)[O-])cnc1/C=C/c1ccccc1 [compound 5, 1-Methyl-5-nitro-2-[(E)-2-phenylvinyl]-1H-imidazole]
E1/2 in DMSO (half-wave potential, 0/−1 reduction), mean ± SE [1]: −1.517 ± 0.001 V vs Fc
E1/2 more positive than Mz [1]: 30–50 mV
effect on infection (trophozoites in small intestine) at 10 mg/kg (G. lamblia GS/M): complete clearance of the infection
Ep in water (peak potential), mean ± SE [3]: −0.634 ± 0.004 V vs SCE

Cn1c([N+](=O)[O-])cnc1/C=C/c1ccc(Br)cc1 [compound 12, 2-[(E)-2-(4-Bromophenyl)vinyl]-1-methyl-5-nitro-1H-imidazole]
E1/2 in DMSO (half-wave potential, 0/−1 reduction), mean ± SE [1]: −1.506 ± 0.002 V vs Fc
effect on infection (trophozoites in small intestine) at 2 mg/kg (G. lamblia GS/M): no significant activity
effect on infection (trophozoites in small intestine) at 10 mg/kg (G. lamblia GS/M): no significant activity
Ep in water (peak potential), mean ± SE [3]: −0.605 ± 0.007 V vs SCE

Cn1c([N+](=O)[O-])cnc1/C=C/c1cccc(F)c1 [compound 19, 2-[(E)-2-(3-Fluorophenyl)vinyl]-1-methyl-5-nitro-1H-imidazole]
E1/2 in DMSO (half-wave potential, 0/−1 reduction), mean ± SE [1]: −1.502 ± 0.001 V vs Fc
effect on infection (trophozoites in small intestine) at 2 mg/kg (G. lamblia GS/M): significant activity
effect on infection (trophozoites in small intestine) at 10 mg/kg (G. lamblia GS/M): complete clearance of the infection
Ep in water (peak potential), mean ± SE [3]: −0.613 ± 0.008 V vs SCE

Cn1c([N+](=O)[O-])cnc1/C=C/c1ccc2ccccc2c1 [compound 26, 1-Methyl-2-[(E)-2-(2-naphthyl)vinyl]-5-nitro-1H-imidazole]
E1/2 in DMSO (half-wave potential, 0/−1 reduction), mean ± SE [1]: −1.509 ± 0.001 V vs Fc
selectivity ratio, IC50/EC50 [2]: 1,622
IC50 (HeLa cells): 97.7 µM

Cn1ccnc1/C=C/c1ncc([N+](=O)[O-])n1C [compound 28, 1-Methyl-2-[(E)-2-(1-methyl-1H-imidazol-2-yl)vinyl]-5-nitro-1H-imidazole]
E1/2 in DMSO (half-wave potential, 0/−1 reduction), mean ± SE [1]: −1.497 ± 0.001 V vs Fc
E1/2 more positive than Mz [1]: 50–65 mV
selectivity ratio, IC50/EC50 [2]: 1,202
effect on infection (trophozoites in small intestine) at 2 mg/kg (G. lamblia GS/M): significant activity
effect on infection (trophozoites in small intestine) at 10 mg/kg (G. lamblia GS/M): complete clearance of the infection
Ep in water (peak potential), mean ± SE [3]: −0.594 ± 0.014 V vs SCE

Cn1c([N+](=O)[O-])cnc1/C=C/c1ccco1 [compound 29, 2-[(E)-2-(2-Furyl)vinyl]-1-methyl-5-nitro-1H-imidazole]
E1/2 in DMSO (half-wave potential, 0/−1 reduction), mean ± SE [1]: −1.504 ± 0.003 V vs Fc
E1/2 more positive than Mz [1]: 50–65 mV
selectivity ratio, IC50/EC50 [2]: 2,754
IC50 (HeLa cells): 93.3 µM
effect on infection (trophozoites in small intestine) at 10 mg/kg (G. lamblia GS/M): complete clearance of the infection
